Measured values as given in ChEMBL document CHEMBL3045592, “Studies of O,O-dimethyl α-(2,4-dichlorophenoxyacetoxy)ethylphosphonate (HW02) as a new herbicide. 1. Synthesis and herbicidal activity of HW02 and analogues as novel inhibitors of pyruvate dehydrogenase complex” (J Agric Food Chem, 2011).

Key:
[1] = test system: Brassica rapa subsp. oleifera; assay: Post-emergence herbicidal activity against Brassica rapa subsp. oleifera Si Yue Man assessed as growth inhibition at 600 ai g/ha after 20 days by green house test; type: functional
Portulaca oleracea [2] = assay: Post-emergence herbicidal activity against Portulaca oleracea assessed as growth inhibition at 225 ai g/ha after 20 days by green house test; type: functional
[3] = Toxicity against Zea mays Gao you 1 (maize) assessed as growth inhibition at 150 ai g/ha post-emergent application measured after 20 days by green house crop selectivity test; type: organism-based; conditions: Gao you 1, zea mays, in vivo, read-out: GI
Daucus carota [4] = assay: Post-emergence herbicidal activity against Daucus carota (carrot) assessed as growth inhibition at 225 ai g/ha after 20 days by green house test; type: functional
[5] = Toxicity against Triticum aestivum Yang Mai 1 (wheat) assessed as growth inhibition at 450 ai g/ha post-emergent application measured after 20 days by green house crop selectivity test; type: organism-based; conditions: Yang Mai 1, triticum aestivum, in vivo, read-out: GI
[6] = Toxicity against Zea mays Gao you 1 (maize) assessed as growth inhibition at 600 ai g/ha post-emergent application measured after 20 days by green house crop selectivity test; type: organism-based; conditions: Gao you 1, zea mays, in vivo, read-out: GI
Daucus carota [7] = assay: Post-emergence herbicidal activity against Daucus carota (carrot) assessed as growth inhibition at 75 ai g/ha after 20 days by green house test; type: functional
Amaranthus retroflexus [8] = assay: Post-emergence herbicidal activity against Amaranthus retroflexus assessed as growth inhibition at 225 ai g/ha after 20 days by green house test; type: functional
Portulaca oleracea [9] = assay: Post-emergence herbicidal activity against Portulaca oleracea assessed as growth inhibition at 150 ai g/ha after 20 days by green house test; type: functional
Digitaria sanguinalis [10] = assay: Post-emergence herbicidal activity against Digitaria sanguinalis (hairy crabgrass) assessed as growth inhibition at 18.75 ai g/ha after 20 days by green house test; type: functional
Eclipta prostrata [11] = assay: Post-emergence herbicidal activity against Eclipta prostrata assessed as growth inhibition at 18.75 ai g/ha after 20 days by green house test; type: functional
[12] = test system: Brassica rapa subsp. oleifera; assay: Post-emergence herbicidal activity against Brassica rapa subsp. oleifera Si Yue Man assessed as growth inhibition at 75 ai g/ha after 20 days by green house test; type: functional
[13] = target: Pyruvate dehydrogenase complex (Vigna radiata var. radiata); assay: Inhibition of PDHc in Vigna radiata var. radiata VC2778A shoot mitochondria assessed as decrease in rate of NADH formation using sodium pyruvate as substrate preincubated for 25 min before substrate addition measured after 1 min by spectrophotometric assay; type: protein-complex assay
[14] = test system: Brassica rapa subsp. oleifera; assay: Post-emergence herbicidal activity against Brassica rapa subsp. oleifera Si Yue Man assessed as growth inhibition at 150 ai g/ha after 20 days by green house test; type: functional
Xanthium strumarium = assay: Post-emergence herbicidal activity against Xanthium strumarium (cocklebur) assessed as growth inhibition at 75 ai g/ha after 20 days by green house test; type: functional
Amaranthus retroflexus [15] = assay: Post-emergence herbicidal activity against Amaranthus retroflexus assessed as growth inhibition at 150 ai g/ha after 20 days by green house test; type: functional
[16] = Toxicity against Oryza sativa (rice) assessed as growth inhibition at 300 ai g/ha post-emergent application measured after 20 days by green house crop selectivity test; type: organism-based; conditions: in vivo, read-out: GI
Cardamine hirsuta [17] = assay: Post-emergence herbicidal activity against Cardamine hirsuta assessed as growth inhibition at 225 ai g/ha after 20 days by green house test; type: functional
Portulaca oleracea [18] = assay: Post-emergence herbicidal activity against Portulaca oleracea assessed as growth inhibition at 300 ai g/ha after 20 days by green house test; type: functional
Daucus carota [19] = assay: Post-emergence herbicidal activity against Daucus carota (carrot) assessed as growth inhibition at 600 ai g/ha after 20 days by green house test; type: functional
[20] = test system: Brassica rapa subsp. oleifera; assay: Post-emergence herbicidal activity against Brassica rapa subsp. oleifera Si Yue Man assessed as growth inhibition at 300 ai g/ha after 20 days by green house test; type: functional
Echinochloa crus-galli [21] = assay: Post-emergence herbicidal activity against Echinochloa crus-galli (barnyard grass) assessed as growth inhibition at 75 ai g/ha after 20 days by green house test; type: functional
[22] = Toxicity against Triticum aestivum Yang Mai 1 (wheat) assessed as growth inhibition at 300 ai g/ha post-emergent application measured after 20 days by green house crop selectivity test; type: organism-based; conditions: Yang Mai 1, triticum aestivum, in vivo, read-out: GI
Medicago sativa [23] = assay: Post-emergence herbicidal activity against Medicago sativa (alfalfa) assessed as growth inhibition at 150 ai g/ha after 20 days by green house test; type: functional
Oryza sativa [24] = assay: Inhibition of PDHc in Oryza sativa (rice) shoot mitochondria assessed as decrease in rate of NADH formation using sodium pyruvate as substrate at 1 microg/g preincubated for 25 min before substrate addition measured after 1 min by spectrophotometric assay
Eclipta prostrata [25] = assay: Post-emergence herbicidal activity against Eclipta prostrata assessed as growth inhibition at 225 ai g/ha after 20 days by green house test; type: functional
Echinochloa crus-galli [26] = assay: Post-emergence herbicidal activity against Echinochloa crus-galli (barnyard grass) assessed as growth inhibition at 150 ai g/ha after 20 days by green house test; type: functional
Amaranthus retroflexus [27] = assay: Post-emergence herbicidal activity against Amaranthus retroflexus assessed as growth inhibition at 37.5 ai g/ha after 20 days by green house test; type: functional
Cardamine hirsuta [28] = assay: Post-emergence herbicidal activity against Cardamine hirsuta assessed as growth inhibition at 150 ai g/ha after 20 days by green house test; type: functional
Amaranthus retroflexus [29] = assay: Post-emergence herbicidal activity against Amaranthus retroflexus assessed as growth inhibition at 300 ai g/ha after 20 days by green house test; type: functional
Portulaca oleracea [30] = assay: Post-emergence herbicidal activity against Portulaca oleracea assessed as growth inhibition at 18.75 ai g/ha after 20 days by green house test; type: functional
Cardamine hirsuta [31] = assay: Post-emergence herbicidal activity against Cardamine hirsuta assessed as growth inhibition at 300 ai g/ha after 20 days by green house test; type: functional
Eclipta prostrata [32] = assay: Post-emergence herbicidal activity against Eclipta prostrata assessed as growth inhibition at 75 ai g/ha after 20 days by green house test; type: functional
Digitaria sanguinalis [33] = assay: Post-emergence herbicidal activity against Digitaria sanguinalis (hairy crabgrass) assessed as growth inhibition at 225 ai g/ha after 20 days by green house test; type: functional
Medicago sativa [34] = assay: Post-emergence herbicidal activity against Medicago sativa (alfalfa) assessed as growth inhibition at 225 ai g/ha after 20 days by green house test; type: functional
Oryza sativa [35] = assay: Inhibition of PDHc in Oryza sativa (rice) shoot mitochondria assessed as decrease in rate of NADH formation using sodium pyruvate as substrate at 100 microg/g preincubated for 25 min before substrate addition measured after 1 min by spectrophotometric assay
Digitaria sanguinalis [36] = assay: Post-emergence herbicidal activity against Digitaria sanguinalis (hairy crabgrass) assessed as growth inhibition at 300 ai g/ha after 20 days by green house test; type: functional
Echinochloa crus-galli [37] = assay: Post-emergence herbicidal activity against Echinochloa crus-galli (barnyard grass) assessed as growth inhibition at 18.75 ai g/ha after 20 days by green house test; type: functional
Eclipta prostrata [38] = assay: Post-emergence herbicidal activity against Eclipta prostrata assessed as growth inhibition at 300 ai g/ha after 20 days by green house test; type: functional
Eclipta prostrata [39] = assay: Post-emergence herbicidal activity against Eclipta prostrata assessed as growth inhibition at 450 ai g/ha after 20 days by green house test; type: functional

Compound: COP(=O)(OC)C(C)OC(=O)COc1ccc(Cl)cc1Cl (stereo not given) [CLACYFOS]
- growth inhibition (GI) [1]: 100%
- growth inhibition (GI) (Portulaca oleracea [2]): 90%
- inhibition at 480 h [3]: 0%
- growth inhibition (GI) (Daucus carota [4]): 97%
- inhibition at 480 h [5]: 0%
- inhibition at 480 h [6]: 0%
- growth inhibition (GI) (Daucus carota [7]): 90%
- growth inhibition (GI) (Amaranthus retroflexus [8]): 100%
- growth inhibition (GI) (Portulaca oleracea [9]): 85%
- growth inhibition (GI) (Digitaria sanguinalis [10]): 0%
- growth inhibition (GI) (Eclipta prostrata [11]): 56%
- growth inhibition (GI) [12]: 92.5%
- IC50 [13]: 12.8 µM
- growth inhibition (GI) [14]: 97%
- growth inhibition (GI) (Xanthium strumarium): 72%
- growth inhibition (GI) (Amaranthus retroflexus [15]): 96%
- inhibition at 480 h [16]: 0%
- growth inhibition (GI) (Cardamine hirsuta [17]): 95%
- growth inhibition (GI) (Portulaca oleracea [18]): 95%
- growth inhibition (GI) (Daucus carota [19]): 100%
- growth inhibition (GI) [20]: 100%
- growth inhibition (GI) (Echinochloa crus-galli [21]): 0%
- inhibition at 480 h [22]: 0%
- growth inhibition (GI) (Medicago sativa [23]): 90%
- inhibition (Oryza sativa [24]): 8.2%
- growth inhibition (GI) (Eclipta prostrata [25]): 96%
- growth inhibition (GI) (Echinochloa crus-galli [26]): 0%
- growth inhibition (GI) (Amaranthus retroflexus [27]): 82.5%
- growth inhibition (GI) (Cardamine hirsuta [28]): 92.5%
- growth inhibition (GI) (Amaranthus retroflexus [29]): 100%
- growth inhibition (GI) (Portulaca oleracea [30]): 50%
- growth inhibition (GI) (Cardamine hirsuta [31]): 100%
- growth inhibition (GI) (Eclipta prostrata [32]): 82.5%
- growth inhibition (GI) (Digitaria sanguinalis [33]): 22.5%
- growth inhibition (GI) (Medicago sativa [34]): 95%
- inhibition (Oryza sativa [35]): 21.3%
- growth inhibition (GI) (Digitaria sanguinalis [36]): 32%
- growth inhibition (GI) (Echinochloa crus-galli [37]): 0%
- growth inhibition (GI) (Eclipta prostrata [38]): 100%
- growth inhibition (GI) (Eclipta prostrata [39]): 100%
